The target of one assay is T1, BRD4 (BD1) (Homo sapiens, UniProt O60885).
T1 construct: with relatively long constructs also being possible, preferably amino acids 44-168; made in house; host or cells: E. coli
Description: Binding assay BRD4/acetylated peptide H4 (TR-FRET protein-protein interaction assay). In short, it runs like this: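 Displacement of biotin-Ac-H4 peptide from His6-tagged BRD4(BD1), final usually 10 nM, read as Eu-streptavidin to anti-His-XL665 TR-FRET (665/620 nm). Compounds tested at 11 doses up to 20 μM in duplicate, pH 7.5 HEPES, 22 °C then 4 °C incubation; IC50 by 4-parameter regression.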
On the technique in general: In TR-FRET formats the signal depends on donor and acceptor labels being close together.

The subject of another assay is MOLM-13 cells. Description: Cell proliferation assay (alamarBlue), MOLM-13. To be noted: Homo sapiens, 96 hours incubation, inhibition of cell proliferation. In kind it is cell-based. In short, it runs like this:
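IC50 = concentration giving 50% growth inhibition relative to buffer-treated cells, after subtracting baseline fluorescence taken before dosing. Compound applied at 1E-5 to 1E-8 M for 96 h at 37 °C in RPMI1640 with 10% FCS; alamarBlue signal at 530/590 nm.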
In general terms: The colour change of resazurin is a common sign of viable cells or microbes.

From US9890147B2 (BAYER PHARMA AKTIENGESELLSCHAFT, priority 2012, dated 2018) come the findings set out here.

A value given as a limit tells only on which side of the number the result lay.

As for `CNC(=O)N1N=C(c2ccc(N3CC(F)C3)cc2)c2cc(OC)c(OC)cc2C[C@H]1C` [Example 129.1, (4R)-1-[4-(3-fluoroazetidin-1-yl)phenyl]-7,8-dimethoxy-N,4-dimethyl-4,5-dihydro-3H-2,3-benzodiazepine-3-carboxamide], the IC50 at BRD4 (BD1) was 6.62 µM; with MOLM-13 cells, over 10 µM.
For `CNC(=O)N1N=C(c2ccc(N3CCN(C(C)=O)CC3)cc2)c2cc(OC)c(OC)cc2C[C@H]1C` [Example 132.1, (4R)-1-[4-(4-acetylpiperazin-1-yl)phenyl]-7,8-dimethoxy-N,4-dimethyl-4,5-dihydro-3H-2,3-benzodiazepine-3-carboxamide], in that order: 4.08 µM and 7.56 µM.
The like results for `CNC(=O)N1N=C(c2ccc(N3CCN(C(C)=O)CC3)cc2)c2cc(OC)c(OC)cc2C[C@@H]1C` [Example 132.2, (4S)-1-[4-(4-acetylpiperazin-1-yl)phenyl]-7,8-dimethoxy-N,4-dimethyl-4,5-dihydro-3H-2,3-benzodiazepine-3-carboxamide] were, in that order, 0.02 µM and 0.23 µM.
For `CNC(=O)N1N=C(c2ccc(N3CCN(C(=O)C(C)(C)O)CC3)cc2)c2cc(OC)c(OC)cc2C[C@@H]1C` [Example 134.1, (4S)-1-{4-[4-(2-hydroxy-2-methylpropanoyl)piperazin-1-yl]phenyl}-7,8-dimethoxy-N,4-dimethyl-4,5-dihydro-3H-2,3-benzodiazepine-3-carboxamide], the 50% inhibitory concentration (IC50) was found to be 0.03 µM at BRD4 (BD1) and 0.08 µM in the assay with MOLM-13 cells.
For `CNC(=O)N1N=C(c2ccc(N3CCS(=O)(=O)CC3)cc2)c2cc(OC)c(OC)cc2C[C@@H]1C` [Example 136, (4S)-1-[4-(1,1-dioxidothiomorpholin-4-yl)phenyl]-7,8-dimethoxy-N,4-dimethyl-4,5-dihydro-3H-2,3-benzodiazepine-3-carboxamide], in that order: 0.02 µM and 0.2 µM.
The like results for `CNC(=O)N1N=C(c2ccc(N3CCN(C)C(=O)C3)cc2)c2cc(OC)c(OC)cc2C[C@@H]1C` [Example 138.1, (4S)-7,8-dimethoxy-N,4-dimethyl-1-[4-(4-methyl-3-oxopiperazin-1-yl)phenyl]-4,5-dihydro-3H-2,3-benzodiazepine-3-carboxamide] were, in that order, 0.04 µM and 0.18 µM.
For `CNC(=O)N1N=C(c2ccc(-n3ccc(-c4ccc(F)cc4)n3)cc2)c2cc(OC)c(OC)cc2C[C@H]1C` [Example 150.2, (4R)-1-{4-[3-(4-fluorophenyl)-1H-pyrazol-1-yl]phenyl}-7,8-dimethoxy-N,4-dimethyl-4,5-dihydro-3H-2,3-benzodiazepine-3-carboxamide], in that order: 12.3 µM and 9.87 µM.
As to `CNC(=O)N1N=C(c2ccc(-c3c(C)noc3C)cc2)c2cc(OC(F)(F)F)c(Cl)cc2C[C@@H]1C` [Example 156.1, (4S)-7-Chloro-1-[4-(3,5-dimethylisoxazol-4-yl)phenyl]-N,4-dimethyl-8-(trifluoromethoxy)-4,5-dihydro-3H-2,3-benzodiazepine-3-carboxamide], the IC50 at BRD4 (BD1) was determined as 0.33 µM; in the assay with MOLM-13 cells, 0.56 µM.
The like results for `CNC(=O)N1N=C(c2ccc(-c3c(C)noc3C)cc2)c2cc(OC(F)(F)F)c(Cl)cc2C[C@H]1C` [Example 156.2, (4R)-7-Chloro-1-[4-(3,5-dimethylisoxazol-4-yl)phenyl]-N,4-dimethyl-8-(trifluoromethoxy)-4,5-dihydro-3H-2,3-benzodiazepine-3-carboxamide] were, in that order, 2.24 µM and over 10 µM.
Regarding `CNC(=O)N1N=C(c2ccc(-c3c(C)noc3C)cc2)c2cc(Cl)c(OC)cc2C[C@@H]1C` [Example 157.1, (4S)-8-chloro-1-[4-(3,5-dimethylisoxazol-4-yl)phenyl]-7-methoxy-N,4-dimethyl-4,5-dihydro-3H-2,3-benzodiazepine-3-carboxamide], the 50% inhibitory concentration (IC50) at BRD4 (BD1) worked out at 0.13 µM; with MOLM-13 cells, 0.12 µM.
For `CNC(=O)N1N=C(c2ccc(-c3c(C)noc3C)cc2)c2cc(Cl)c(OC)cc2C[C@H]1C` [Example 157.2, (4R)-8-chloro-1-[4-(3,5-dimethylisoxazol-4-yl)phenyl]-7-methoxy-N,4-dimethyl-4,5-dihydro-3H-2,3-benzodiazepine-3-carboxamide], in that order: 0.47 µM and 2.19 µM.
Regarding `CNC(=O)N1N=C(c2ccc(-c3c(C)noc3C)cc2)c2cc(OC)c(OC(F)F)cc2C[C@@H]1C` [Example 162.1, (4S)-7-(difluoromethoxy)-1-[4-(3,5-dimethylisoxazol-4-yl)phenyl]-8-methoxy-N,4-dimethyl-4,5-dihydro-3H-2,3-benzodiazepine-3-carboxamide], the IC50 worked out at 0.1 µM at BRD4 (BD1) and 0.21 µM in the assay on MOLM-13 cells.
For `CNC(=O)N1N=C(c2ccc(-c3c(C)noc3C)cc2)c2cc(OC)c(OC(F)F)cc2C[C@H]1C` [Example 162.2, (4R)-7-(difluoromethoxy)-1-[4-(3,5-dimethylisoxazol-4-yl)phenyl]-8-methoxy-N,4-dimethyl-4,5-dihydro-3H-2,3-benzodiazepine-3-carboxamide], in that order: 0.56 µM and 1.68 µM.
For `CNC(=O)N1N=C(c2ccc(N3CCN(C)CC3)cc2)c2cc(OC)c(OC(F)F)cc2C[C@H]1C` [Example 163.1, (4R)-7-(difluoromethoxy)-8-methoxy-N,4-dimethyl-1-[4-(4-methylpiperazin-1-yl)phenyl]-4,5-dihydro-3H-2,3-benzodiazepine-3-carboxamide], in that order: 8.94 µM and 7.08 µM.
For `CNC(=O)N1N=C(c2ccc(N3CCN(C)CC3)cc2)c2cc(OC)c(OC(F)F)cc2C[C@@H]1C` [Example 163.2, (4S)-7-(difluoromethoxy)-8-methoxy-N,4-dimethyl-1-[4-(4-methylpiperazin-1-yl)phenyl]-4,5-dihydro-3H-2,3-benzodiazepine-3-carboxamide], in that order: 0.03 µM and 0.26 µM.
`CNC(=O)N1N=C(c2ccc(Cl)cc2)c2cc(OCCCN3CCN(C)CC3)ccc2C[C@@H]1C` [Example 164.2, (4S)-1-(4-chlorophenyl)-N,4-dimethyl-8-[3-(4-methylpiperazin-1-yl)propoxy]-4,5-dihydro-3H-2,3-benzodiazepine-3-carboxamide]: the results for the IC50 on BRD4 (BD1) and in the assay on MOLM-13 cells were 0.06 µM and 0.42 µM, respectively.
The like results for `CNC(=O)N1N=C(c2ccc(-c3c(C)noc3C)cc2)c2cc(N3CCOCC3)ccc2C[C@H]1C` [Example 176.1, (4R)-1-[4-(3,5-Dimethylisoxazol-4-yl)phenyl]-N,4-dimethyl-8-(morpholin-4-yl)-4,5-dihydro-3H-2,3-benzodiazepine-3-carboxamide] were, in that order, 0.73 µM and 2.19 µM.
For `CNC(=O)N1N=C(c2ccc(-c3c(C)noc3C)cc2)c2cc(N3CCOCC3)ccc2C[C@@H]1C` [Example 176.2, (4S)-1-[4-(3,5-Dimethylisoxazol-4-yl)phenyl]-N,4-dimethyl-8-(morpholin-4-yl)-4,5-dihydro-3H-2,3-benzodiazepine-3-carboxamide], in that order: 0.04 µM and 0.25 µM.
For the compound `CNC(=O)N1N=C(c2ccc(N3CCOCC3=O)cc2)c2cc(OC)ccc2C[C@@H]1C` [Example 177, (4S)-8-Methoxy-N,4-dimethyl-1-[4-(3-oxomorpholin-4-yl)phenyl]-4,5-dihydro-3H-2,3-benzodiazepine-3-carboxamide], the values for the concentration for half-maximal inhibition (IC50) at BRD4 (BD1) and with MOLM-13 cells were 0.07 µM and 0.49 µM, respectively.
For `CNC(=O)N1N=C(c2ccc(N3CCC(OC)CC3)cc2)c2cc(OC)c(OC)cc2C[C@@H]1C` [Example 179.2, (4S)-7,8-dimethoxy-1-[4-(4-methoxypiperidin-1-yl)phenyl]-N,4-dimethyl-4,5-dihydro-3H-2,3-benzodiazepine-3-carboxamide], in that order: 0.04 µM and 0.08 µM.
For `CNC(=O)N1N=C(c2ccc(N3CCC(N(C)C)CC3)cc2)c2cc(OC)c(OC)cc2C[C@H]1C` [Example 180.1, (4R)-1-{4-[4-(dimethylamino)piperidin-1-yl]phenyl}-7,8-dimethoxy-N,4-dimethyl-4,5-dihydro-3H-2,3-benzodiazepine-3-carboxamide], in that order: 0.39 µM and 2.7 µM.
The like results for `CNC(=O)N1N=C(c2ccc(N3CCC(N(C)C)CC3)cc2)c2cc(OC)c(OC)cc2C[C@@H]1C` [Example 180.2, (4S)-1-{4-[4-(dimethylamino)piperidin-1-yl]phenyl}-7,8-dimethoxy-N,4-dimethyl-4,5-dihydro-3H-2,3-benzodiazepine-3-carboxamide] were, in that order, 0.06 µM and 0.05 µM.
On to `CNC(=O)N1N=C(c2ccc(N3CC(C)(O)C3)cc2)c2cc(OC)c(OC)cc2C[C@@H]1C` [Example 185.2, (4S)-1-[4-(3-hydroxy-3-methylazetidin-1-yl)phenyl]-7,8-dimethoxy-N,4-dimethyl-4,5-dihydro-3H-2,3-benzodiazepine-3-carboxamide], for which the results for the 50% inhibitory concentration (IC50) at BRD4 (BD1) and in the assay with MOLM-13 cells were 0.03 µM and 0.1 µM, respectively.
The like results for `CNC(=O)N1N=C(c2ccc(N3CCC(C)(O)CC3)cc2)c2cc(OC)c(OC)cc2C[C@H]1C` [Example 188.1, (4R)-1-[4-(4-hydroxy-4-methylpiperidin-1-yl)phenyl]-7,8-dimethoxy-N,4-dimethyl-4,5-dihydro-3H-2,3-benzodiazepine-3-carboxamide] were, in that order, 0.27 µM and 1.13 µM.
In the case of `CNC(=O)N1N=C(c2ccc(N3CCC(C)(O)CC3)cc2)c2cc(OC)c(OC)cc2C[C@@H]1C` [Example 188.2, (4S)-1-[4-(4-hydroxy-4-methylpiperidin-1-yl)phenyl]-7,8-dimethoxy-N,4-dimethyl-4,5-dihydro-3H-2,3-benzodiazepine-3-carboxamide], the IC50 at BRD4 (BD1) was 0.03 µM; in the assay on MOLM-13 cells, 0.07 µM.

The term IC50 denotes the point on the concentration scale where inhibition reaches its midpoint. Low readings indicate inhibition by little substance, high ones a need for much substance.
